No end group written: not given here.
Experiments:
[1] = test system: Erwinia amylovora PMV6076; test: In vitro growth inhibition (MIC); format: cell-based; settings: TSB, 25°C, 48 h, OD 600 nm (Bioscreen C), three replicates, experiment repeated twice; MIC = lowest concentration with no growth, given as range
Method in brief: (§1)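 Strains were grown 24 h at 25°C on agar, then suspended in sterile water at 10^8 CFU mL^−1 and mixed with peptide dilutions in Trypticase soy broth. Plates were incubated at 25°C with shaking and OD600 read hourly for 48 h. MIC is the lowest concentration with no growth at 48 h.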

[2] = test system: Pseudomonas syringae pv. actinidiae Psa3700.1.1; test: In vitro growth inhibition (MIC); format: cell-based; settings: TSB, 25°C, 48 h, OD 600 nm (Bioscreen C), three replicates, experiment repeated twice; MIC given as range
Method in brief: as §1

[3] = test system: Pseudomonas syringae pv. syringae EPS94; test: In vitro growth inhibition (MIC); format: cell-based; settings: TSB, 25°C, 48 h, OD 600 nm (Bioscreen C), three replicates, experiment repeated twice; MIC given as range
Method in brief: as §1

[4] = test system: Xanthomonas arboricola pv. pruni CFBP5563; test: In vitro growth inhibition (MIC); format: cell-based; settings: TSB, 25°C, 48 h, OD 600 nm (Bioscreen C), three replicates, experiment repeated twice; MIC given as range
Method in brief: as §1

[5] = test system: Xanthomonas fragariae Xf349-9A; test: In vitro growth inhibition (MIC); format: cell-based; settings: TSB, 25°C, 48 h, OD 600 nm (Bioscreen C), three replicates, experiment repeated twice; MIC given as range
Method in brief: as §1

[6] = test system: Xanthomonas axonopodis pv. vesicatoria 2133-2; settings: TSB, 25°C, 48 h, OD 600 nm (Bioscreen C), three replicates, experiment repeated twice; MIC given as range
Method in brief: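 Bacteria grown 24 h (48 h for Xanthomonas axonopodis, X. fragariae) at 25°C, suspended at 10^8 CFU mL^−1, mixed with peptide dilutions in TSB.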

[7] = test system: plant-pathogenic bacteria (E. amylovora, X. arboricola pv. pruni, X. fragariae, X. axonopodis pv. vesicatoria, P. syringae pv. actinidiae, P. syringae pv. …); settings: 24 h
horse erythrocytes = settings: TRIS buffer pH 7.2, 1 h, 37°C, absorbance 540 nm, relative to melittin 100 μM, ± confidence interval (α = 0.05)
Method in brief: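 Hemolysis measured as absorbance at 540 nm of supernatant, expressed as percent of melittin-lysed control after buffer subtraction. Compound solutions (750, 500, 300, 100 μM, Tris-buffered saline pH 7.2) were combined 1:1 with washed horse red cells for 1 h, 37°C, shaking.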

tobacco leaves = test: Effect of peptide infiltration on tobacco leaves (phytotoxicity); format: in vivo; settings: in vivo
Method in brief: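 Phytotoxicity was scored as necrotic lesion diameter 48 h post-infiltration. Each peptide was infiltrated at 50, 150 or 250 μM into fully expanded tobacco leaf mesophyll, on ≥3 leaves from different plants, alongside water and same-molar melittin controls.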

[8] = HPLC retention time as indicator of relative hydrophobicity; format: physicochemical; settings: chromatographic, Kromasil 100 C18 (4.6 mm × 40 mm, 3 μm), linear gradient 2 to 100% B over 12 min, 1 mL/min; A 0.1% aqueous TFA, B 0.1% TFA in CH3CN; used as indicator of relative hydrophobicity
Method in brief: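 Reversed-phase HPLC on Kromasil 100 C18 (4.6 × 40 mm, 3 μm), 0.1% TFA in water/acetonitrile, linear 2–100% B at 1 mL/min over 7 min (method A, UV 220 nm) or 12 min (method B). Retention time serves as relative hydrophobicity.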

Substance	MIC, Ea [1]	MIC, Psa [2]	MIC, Pss [3]	MIC, Xap [4]	MIC, Xf [5]	MIC, Xav [6]	MIC against four pathogens [7]	Percent hemolysis at 50 μM (horse erythrocytes)	Percent hemolysis at 150 μM (horse erythrocytes)	Percent hemolysis at 250 μM (horse erythrocytes)	Percent hemolysis at 375 μM (horse erythrocytes)	Size of the lesions in infiltrated tobacco leaves at 50 μM (tobacco leaves)	Size of the lesions in infiltrated tobacco leaves at 150 μM (tobacco leaves)	Size of the lesions in infiltrated tobacco leaves at 250 μM (tobacco leaves)	tR (min), HPLC retention time (method B) [8]	MIC against all the bacteria tested (span over the six pathogens) [7]
KKLFKKILKYLVWNQPVRGFKVYE [BP100-Pep13]	0.8 to 1.6 µM	0.8 to 1.6 µM	1.6 to 3.1 µM	1.6 to 3.1 µM	3.1 to 6.2 µM	1.6 to 3.1 µM	0.8 to 3.1 µM	5 ± 0.3%	12 ± 1.1%	20 ± 2.4%	30 ± 3.2%	0.04 ± 0.08 cm	0.32 ± 0.11 cm	0.42 ± 0.10 cm	5.53 min	
VWNQPVRGFKVYEKKLFKKILKKL-NH2 [Pep13-BP16]	6.2 to 12.5 µM	1.6 to 3.1 µM	6.2 to 12.5 µM	0.8 to 1.6 µM	3.1 to 6.2 µM	0.8 to 1.6 µM		2 ± 0.6%	3 ± 0.2%	4 ± 0.3%	4 ± 0.2%	0.23 ± 0.07 cm	0.52 ± 0.14 cm	0.93 ± 0.19 cm	5.70 min	0.8 to 12.5 µM
VWNQPVRGFKVYEKKLFKKILKYL-NH2 [Pep13-BP100]	6.2 to 12.5 µM	3.1 to 6.2 µM	6.2 to 12.5 µM	0.8 to 1.6 µM	6.2 to 12.5 µM	0.8 to 1.6 µM		9 ± 1.0%	25 ± 2.4%	45 ± 9.0%	49 ± 9.2%	0.26 ± 0.08 cm	0.56 ± 0.13 cm	0.70 ± 0.15 cm	6.14 min	0.8 to 12.5 µM

From PMC9238401, “Peptide Conjugates Derived from flg15, Pep13, and PIP1 That Are Active against Plant-Pathogenic Bacteria and Trigger Plant Defense Responses” (Applied and Environmental Microbiology, 2022)
